{"source": "paper PMC6934184", "about": "“Selective DNA-PKcs inhibition extends the therapeutic index of localized radiotherapy and chemotherapy” (The Journal of Clinical Investigation, 2019)", "molecular_target": "T1, HCK (Homo sapiens, UniProt P08631)", "T1 construct": "purchased Thermo Fisher Scientific (Life Technologies) SelectScreen", "T1 sequence (P08631 whole entry)": "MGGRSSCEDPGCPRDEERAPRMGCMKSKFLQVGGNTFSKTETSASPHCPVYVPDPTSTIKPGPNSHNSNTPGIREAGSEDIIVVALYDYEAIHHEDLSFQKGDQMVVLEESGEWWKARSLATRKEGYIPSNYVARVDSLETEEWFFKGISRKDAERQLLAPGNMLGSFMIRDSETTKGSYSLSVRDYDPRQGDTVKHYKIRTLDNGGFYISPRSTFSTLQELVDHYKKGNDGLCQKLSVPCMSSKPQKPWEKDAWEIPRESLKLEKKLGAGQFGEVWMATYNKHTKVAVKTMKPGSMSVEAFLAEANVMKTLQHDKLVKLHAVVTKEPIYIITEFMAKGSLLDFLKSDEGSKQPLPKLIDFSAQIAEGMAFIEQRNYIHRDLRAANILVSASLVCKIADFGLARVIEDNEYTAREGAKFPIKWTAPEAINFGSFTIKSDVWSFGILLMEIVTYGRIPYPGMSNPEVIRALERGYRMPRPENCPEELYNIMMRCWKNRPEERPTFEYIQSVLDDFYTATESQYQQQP", "experiment": "SelectScreen Z'LYTE", "format": "biochemical", "method_in_brief": "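Percent values come from Thermo SelectScreen profiling of NU5455, combining activity and binding assays. CSF1R was run in Z'LYTE format at Km app ATP, and CAMK1 in Adapta format with ATP listed at 10.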", "data": [{"smiles": "CN(C(=O)CN1CCOCC1)c1ccc2sc3c(-c4cccc5c(=O)cc(N6CC7CCC(C6)O7)oc45)cccc3c2c1", "note": "[NU5455]", "values": [{"measurement": "inhibition at 1 µM", "result": 18, "unit": "%"}]}]}
